Where only a bound is given, the exact number is not on record here.

The assay deals with T1, androgen receptor (AR) (Homo sapiens, UniProt P10275, T878A).
T1 construct: LNCaP cells expressing ARR2PB-FireflyLuc and CMV-RenillaLuc; endogenous in cells; host or cells: LNCaP cells carrying ARR2PB-FireflyLuc and CMV-RenillaLuc reporters
T1 sequence (P10275 1-920 T878A): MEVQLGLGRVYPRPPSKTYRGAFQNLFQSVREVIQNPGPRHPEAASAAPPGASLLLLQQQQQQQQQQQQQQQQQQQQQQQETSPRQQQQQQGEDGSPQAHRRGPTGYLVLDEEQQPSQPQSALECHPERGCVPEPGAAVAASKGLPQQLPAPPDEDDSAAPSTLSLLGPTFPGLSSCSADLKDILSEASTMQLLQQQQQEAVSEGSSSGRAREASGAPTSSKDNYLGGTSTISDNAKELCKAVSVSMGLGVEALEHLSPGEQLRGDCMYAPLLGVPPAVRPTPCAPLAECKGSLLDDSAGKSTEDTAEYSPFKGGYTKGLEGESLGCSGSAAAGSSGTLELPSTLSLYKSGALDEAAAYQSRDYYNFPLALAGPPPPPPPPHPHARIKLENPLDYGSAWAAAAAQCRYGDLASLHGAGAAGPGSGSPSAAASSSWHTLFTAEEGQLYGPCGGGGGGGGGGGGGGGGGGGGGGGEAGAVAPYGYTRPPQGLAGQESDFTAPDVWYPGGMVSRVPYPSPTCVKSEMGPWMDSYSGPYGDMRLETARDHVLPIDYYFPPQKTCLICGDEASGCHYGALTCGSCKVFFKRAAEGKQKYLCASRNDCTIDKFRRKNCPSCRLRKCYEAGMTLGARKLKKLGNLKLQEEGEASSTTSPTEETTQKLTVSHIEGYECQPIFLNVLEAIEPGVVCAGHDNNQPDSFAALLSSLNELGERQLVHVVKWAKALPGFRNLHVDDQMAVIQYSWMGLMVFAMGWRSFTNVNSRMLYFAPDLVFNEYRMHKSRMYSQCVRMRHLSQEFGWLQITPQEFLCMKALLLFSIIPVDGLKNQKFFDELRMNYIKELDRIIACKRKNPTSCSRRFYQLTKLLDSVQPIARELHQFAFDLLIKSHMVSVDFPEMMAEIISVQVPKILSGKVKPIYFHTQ
Description: AR reporter assay in LNCaP cells expressing ARR2PB-FireflyLuc and CMV-RenillaLuc, antagonist mode (% remaining activity, IC50). It is filed as cell-based. The note with it: 48 h at 37° C., class symbols A-D, read-out: IC50. As for the experimental part:
LNCaP cells expressing ARR2PB-FireflyLuc and CMV-RenillaLuc were treated with indicated concentrations of test compounds, enzalutamide (negative control), or DHT (positive control)+/−0.5 nM DHT for 48 h at 37° C. […] Remaining activity (antagonist mode) was calculated as % Remaining Activity=100×[(Readsample−LCave)/(HCave−LCave)] where HC is cells treated with 0.5 nM DHT only and LC is cells treated with 10 uM enzalutamide+0.5 nM DHT. Activation (agonist mode) was calculated as % Activation=100×[(ReadSample−LCave)/(HCave−LCave)] where HC is cells treated with 1 uM DHT and LC is cells treated with DMSO. Dose response curves and IC50 values were calculated using non-linear regression analysis in XLfit.
The designation “A” indicates an IC50 value of >10 μM, “B” indicates an IC50 value between 1 μM and 10 μM; “C” indicates an IC50 value between 100 nM and 1 μM; and “D” indicates an IC50 value of less than 100 nM.
`CC1CCNc2ccc(-c3n[nH]c4cc(F)c(F)cc34)nc21` (single isomer, unassigned) [Compound 47]: the half-maximal inhibitory concentration (IC50) lay within 0.1 to 1 µM.

Take `CC1CCNc2ccc(-c3n[nH]c4cc(F)c(F)cc34)nc21` (single isomer, unassigned) [Compound 48]: the half-maximal inhibitory concentration (IC50) was under 0.1 µM.

Consider `c1ccc2nc(-c3n[nH]c4ccc(N5CCOCC5)cc34)ccc2c1` [Compound 1], for which the IC50 lay within 1 to 10 µM.

As to `c1ccc2nc(-c3n[nH]c4cc(N5CCOCC5)ccc34)ccc2c1` [Compound 2], the IC50 is over 10 µM.

Consider `CN(C)c1ccc2[nH]nc(-c3ccc4ccccc4n3)c2c1` [Compound 3], for which the IC50 was over 10 µM.

Take `CN(C)c1ccc2c(-c3ccc4ccccc4n3)n[nH]c2c1` [Compound 4]: the IC50 was over 10 µM.

Take `c1cnc2ccc(-c3n[nH]c4ccccc34)nc2c1` [Compound 5]: the IC50 was under 0.1 µM.

With `O=c1ccc2nc(-c3n[nH]c4ccccc34)ccc2[nH]1` [Compound 6], the half-inhibitory concentration (IC50) was in the range of 1 to 10 µM.

Consider `c1ccc2c(-c3ccc4cnccc4n3)n[nH]c2c1` [Compound 7], for which the half-inhibitory concentration (IC50) lay within 0.1 to 1 µM.

With `c1ccc2c(-c3ccc4ccncc4n3)n[nH]c2c1` [Compound 8], the IC50 is under 0.1 µM.

As to `c1ccc2c(-c3ccc4c(n3)CCCN4)n[nH]c2c1` [Compound 9], the IC50 lay within 0.1 to 1 µM.

Consider `CN1CCOc2nc(-c3n[nH]c4ccccc34)ccc21` [Compound 10], for which the half-maximal inhibitory concentration (IC50) was over 10 µM.

Regarding `Fc1cc2[nH]nc(-c3ccc4c(n3)CCCN4)c2cc1F` [Compound 11], the IC50 was 0.1 to 1 µM.

Consider `COc1nccc2nc(-c3n[nH]c4ccccc34)ccc12` [Compound 12], for which the IC50 was under 0.1 µM.

On to `CN1CCOc2nc(-c3n[nH]c4cc(F)c(F)cc34)ccc21` [Compound 13], for which the IC50 is 1 to 10 µM.

As to `Fc1cc2[nH]nc(-c3cc4ccccc4nn3)c2cc1F` [Compound 14], the IC50 was over 10 µM.

`COc1ccc2nc(-c3n[nH]c4ccccc34)ccc2n1` [Compound 16]: the IC50 was over 10 µM.

Take `Cn1c(=O)ccc2nc(-c3n[nH]c4ccccc34)ccc21` [Compound 17]: the IC50 was 1 to 10 µM.

As to `Cn1ccc2nc(-c3n[nH]c4ccccc34)ccc2c1=O` [Compound 18], the 50% inhibitory concentration (IC50) was in the range of 1 to 10 µM.

In the case of `Cc1nccc2nc(-c3n[nH]c4ccccc34)ccc12` [Compound 19], the half-maximal inhibitory concentration (IC50) was under 0.1 µM.

Take `c1ccc2c(-c3ccc4c(n3)CNCC4)n[nH]c2c1` [Compound 20]: the concentration for half-maximal inhibition (IC50) is over 10 µM.

`CC(=O)N1CCc2ccc(-c3n[nH]c4ccccc34)nc2C1` [Compound 21]: the IC50 was over 10 µM.

As for `NC1CCCc2nc(-c3n[nH]c4ccccc34)ccc21` (stereo not shown) [Compound 22], the half-maximal inhibitory concentration (IC50) was over 10 µM.

As to `CC(=O)NC1CCCc2nc(-c3n[nH]c4ccccc34)ccc21` (stereo not shown) [Compound 23], the half-maximal inhibitory concentration (IC50) is over 10 µM.

Regarding `CN1CCCc2nc(-c3n[nH]c4cc(F)c(F)cc34)ccc21` [Compound 24], the IC50 fell in the range of 1 to 10 µM.

In the case of `CC(=O)N1CCCc2nc(-c3n[nH]c4cc(F)c(F)cc34)ccc21` [Compound 25], the half-inhibitory concentration (IC50) fell in the range of 0.1 to 1 µM.

In the case of `Fc1cc2[nH]nc(-c3ccc4ncccc4n3)c2cc1F` [Compound 26], the IC50 is under 0.1 µM.

Regarding `Fc1cc2[nH]nc(-c3ccnc4cccnc34)c2cc1F` [Compound 27], the half-inhibitory concentration (IC50) fell in the range of 1 to 10 µM.

Take `O=c1[nH]ccc2nc(-c3n[nH]c4cc(F)c(F)cc34)ccc12` [Compound 28]: the IC50 was 0.1 to 1 µM.

`Cn1ccc2nc(-c3n[nH]c4cc(F)c(F)cc34)ccc2c1=O` [Compound 29]: the 50% inhibitory concentration (IC50) was over 10 µM.

As for `Fc1cc2[nH]nc(-c3ccc4c(n3)CCNC4)c2cc1F` [Compound 30], the IC50 was over 10 µM.

`CC(=O)N1CCc2nc(-c3n[nH]c4cc(F)c(F)cc34)ccc2C1` [Compound 31]: the 50% inhibitory concentration (IC50) is over 10 µM.

Consider `Fc1cc2[nH]nc(-c3ccc4c(n3)CNCC4)c2cc1F` [Compound 32], for which the IC50 is over 10 µM.

Regarding `Fc1cc2[nH]nc(-c3ccc4c(-c5nnco5)c(F)ccc4n3)c2cc1F` [Compound 33], the IC50 lay within 0.1 to 1 µM.

For the compound `Fc1cc2[nH]nc(-c3ccc4cc(F)c(-c5nnco5)cc4n3)c2cc1F` [Compound 34], the 50% inhibitory concentration (IC50) was over 10 µM.

For `Fc1cc2[nH]nc(-c3ccc4c(-c5nnco5)cccc4n3)c2cc1F` [Compound 35], the IC50 is under 0.1 µM.

As for `O=C(CO)N1CCCc2nc(-c3n[nH]c4cc(F)c(F)cc34)ccc21` [Compound 36], the IC50 is 1 to 10 µM.

Regarding `COCC(=O)N1CCCc2nc(-c3n[nH]c4cc(F)c(F)cc34)ccc21` [Compound 37], the IC50 was over 10 µM.

For `CNC(=O)N1CCCc2nc(-c3n[nH]c4cc(F)c(F)cc34)ccc21` [Compound 38], the IC50 fell in the range of 1 to 10 µM.

With `Fc1cc2[nH]nc(-c3ccc4c(n3)COCC4)c2cc1F` [Compound 39], the half-inhibitory concentration (IC50) lay in the range of 1 to 10 µM.

Regarding `Fc1cc2[nH]nc(-c3ccc4c(n3)CCOC4)c2cc1F` [Compound 40], the IC50 was 1 to 10 µM.

Take `O=C1NCc2nc(-c3n[nH]c4cc(F)c(F)cc34)ccc21` [Compound 41]: the concentration for half-maximal inhibition (IC50) is 1 to 10 µM.

Regarding `CN1Cc2nc(-c3n[nH]c4cc(F)c(F)cc34)ccc2C1=O` [Compound 42], the IC50 is 1 to 10 µM.

As to `Cc1cc(F)cc2c(-c3ccc4c(n3)CCCN4)n[nH]c12` [Compound 43], the half-maximal inhibitory concentration (IC50) lay in the range of 0.1 to 1 µM.

In the case of `Cc1cc2[nH]nc(-c3ccc4c(n3)CCCN4)c2cc1F` [Compound 44], the IC50 was 0.1 to 1 µM.

As to `Cc1cc2c(-c3ccc4c(n3)CCCN4)n[nH]c2cc1F` [Compound 45], the IC50 was in the range of 0.1 to 1 µM.

For the compound `CC1CCNc2ccc(-c3n[nH]c4cc(F)c(F)cc34)nc21` (stereo not shown) [Compound 46], the half-maximal inhibitory concentration (IC50) was under 0.1 µM.

`CC1CCNc2cnc(-c3n[nH]c4cc(F)c(F)cc34)cc21` (stereo not shown) [Compound 49]: the half-inhibitory concentration (IC50) fell in the range of 1 to 10 µM.

For the compound `CC1(C)CCNc2ccc(-c3n[nH]c4cc(F)c(F)cc34)nc21` [Compound 50], the IC50 fell in the range of 0.1 to 1 µM.

As for `CC1NC(=O)c2ccc(-c3n[nH]c4cc(F)c(F)cc34)nc21` (stereo not shown) [Compound 51], the IC50 fell in the range of 0.1 to 1 µM.

Consider `CC1(C)NC(=O)c2ccc(-c3n[nH]c4cc(F)c(F)cc34)nc21` [Compound 52], for which the concentration for half-maximal inhibition (IC50) is 0.1 to 1 µM.

In the case of `Cc1nc(-c2n[nH]c3cc(F)c(F)cc23)ccc1N` [Compound 53], the IC50 is 1 to 10 µM.

Turning to `CCc1nc(-c2n[nH]c3cc(F)c(F)cc23)ccc1N` [Compound 54], the concentration for half-maximal inhibition (IC50) was 0.1 to 1 µM.

For `Fc1cc2[nH]nc(-c3ncc4c(n3)CCCN4)c2cc1F` [Compound 55], the 50% inhibitory concentration (IC50) is over 10 µM.

In the case of `Fc1cc2[nH]nc(-c3cc4c(cn3)NCCC4)c2cc1F` [Compound 56], the half-inhibitory concentration (IC50) lay within 1 to 10 µM.

As for `c1ccc2c(-c3cnc4c(c3)NCCC4)n[nH]c2c1` [Compound 57], the IC50 was over 10 µM.

Consider `Fc1cc2[nH]nc(-c3cnc4c(n3)CCCN4)c2cc1F` [Compound 58], for which the half-inhibitory concentration (IC50) was over 10 µM.

Take `Cc1cc(-c2n[nH]c3cc(F)c(F)cc23)nc2c1NCCC2` [Compound 59]: the IC50 was 0.1 to 1 µM.

Take `CC1(C)CCNc2cnc(-c3n[nH]c4cc(F)c(F)cc34)cc21` [Compound 60]: the IC50 was over 10 µM.

For the compound `FC(F)(F)c1ccc(-c2n[nH]c3ccccc23)nc1` [Compound 61], the 50% inhibitory concentration (IC50) lay within 1 to 10 µM.

With `Fc1ccc(-c2n[nH]c3ccccc23)nc1` [Compound 62], the 50% inhibitory concentration (IC50) lay in the range of 1 to 10 µM.

As to `N#Cc1cccc2c(-c3ccc4ccc(F)cc4n3)n[nH]c12` [Compound 63], the 50% inhibitory concentration (IC50) is under 0.1 µM.

Regarding `c1ccc2c(-c3ccc(N4CCNCC4)cn3)n[nH]c2c1` [Compound 64], the IC50 is over 10 µM.

As to `CN1CCN(c2ccc(-c3n[nH]c4ccccc34)nc2)CC1` [Compound 65], the 50% inhibitory concentration (IC50) is over 10 µM.

As for `c1ccc2c(-c3cc(N4CCNCC4)ccn3)n[nH]c2c1` [Compound 66], the IC50 is over 10 µM.

With `CN1CCN(c2ccnc(-c3n[nH]c4ccccc34)c2)CC1` [Compound 67], the IC50 is over 10 µM.

In the case of `CN1CCN(c2cccc(-c3n[nH]c4ccccc34)n2)CC1` [Compound 68], the IC50 was over 10 µM.

Values taken from patent publication US12448368B2, “Indole compounds as androgen receptor modulators” (NIDO BIOSCIENCES, INC., priority 2020, dated 2025).
